Data from article PMC11350787, “Antimicrobial Properties and Cytotoxicity of LL-37-Derived Synthetic Peptides to Treat Orthopedic Infections” (Antibiotics, 2024).
Peptide text beside a SMILES is read from it.

What was measured:
[1] = test system: S. epidermidis ATCC 14990; assay: microbe, parasite or virus in culture; conditions: for Minimum Inhibitory Concentration (MIC): ATCC 14990, 18 h; for Minimum Bactericidal Concentration (MBC): ATCC 14990, 24 h
Text: (§1) A total of 18 bacterial strains relevant to orthopedic infections were used for microbiological tests, including 8 ATCC (American Type Culture Collection, ATCC, Manassas, VA, USA) and 10 clinical isolates (CI) from the Laboratory of Clinical Chemistry and Microbiology, IRCCS Ospedale Galeazzi–Sant’Ambrogio of Milan (Italy) strain collection. The ATCC strains were used for the first screening (MIC/MBC) of all the AMPs produced, while the clinical isolates were used for further MIC/MBC assays on selected AMPs. Among CI, S. epidermidis GOI1153754-03-14 has been already characterized and used in previous studies. All the strains were stocked at −80°C and working stocks were stored at −20 °C. At the occurrence, the bacteria were resuscitated in Brain Hearth Infusion (BHI, Millipore, Milan, Italy) broth at 37 °C for 18 h from the working stocks.
(§2) To determine the minimum inhibitory concentration (MIC) and the minimum bactericidal concentration (MBC), ISO20776-1 and Clinical and Laboratory Standards Institute guidelines were followed. A commercial synthetic LL-37 (Aurogene, Rome, Italy) was used as the control in the MIC and MBC assays. A stock solution of each AMP was prepared at 600 µg/mL to achieve a final concentration of 300 µg/mL. […] The MIC was determined according to the aforementioned standard guidelines. The MBC was determined by plating 2 µL of culture from each well of the MIC plates on a Tryptic Soy Agar (TSA, Millipore, Milan, Italy) plate and incubated for 24 h at 37 °C. The concentration at which there was no growth was recorded as MBC. Each experiment was carried out in triplicate. Representative MIC and MBC values for vancomycin and gentamicin were assessed to offer a benchmark comparison for the AMPs. Quality control was conducted with Staphylococcus aureus ATCC 29,213 and vancomycin according to EUCAST guidelines.

S. aureus ATCC 49230 = assay: microbe, parasite or virus in culture; conditions: for Minimum Inhibitory Concentration (MIC): ATCC 49230, 18 h; for Minimum Bactericidal Concentration (MBC): ATCC 49230, 24 h
Text: as §1, §2

S. aureus ATCC 25923 = assay: microbe, parasite or virus in culture; conditions: for Minimum Inhibitory Concentration (MIC): ATCC 25923, 18 h; for Minimum Bactericidal Concentration (MBC): ATCC 25923, 24 h
Text: as §1, §2

P. aeruginosa ATCC 27853 = assay: microbe, parasite or virus in culture; conditions: for Minimum Inhibitory Concentration (MIC): ATCC 27853, 18 h; for Minimum Bactericidal Concentration (MBC): ATCC 27853, 24 h
Text: as §1, §2

[2] = test system: S. epidermidis ATCC 35984; assay: microbe, parasite or virus in culture; conditions: for Minimum Inhibitory Concentration (MIC): ATCC 35984, 18 h; for Minimum Bactericidal Concentration (MBC): ATCC 35984, 24 h
Text: as §1, §2

S. aureus ATCC 43300 = assay: microbe, parasite or virus in culture; conditions: for Minimum Inhibitory Concentration (MIC): ATCC 43300, 18 h; for Minimum Bactericidal Concentration (MBC): ATCC 43300, 24 h
Text: as §1, §2

E. coli ATCC 25922 = assay: microbe, parasite or virus in culture; conditions: for Minimum Inhibitory Concentration (MIC): ATCC 25922, 18 h; for Minimum Bactericidal Concentration (MBC): ATCC 25922, 24 h
Text: as §1, §2

ATCC strains = conditions: 18 h
Text: as §1, §2

red blood cells (RBC) = assay: Hemolytic activity assessment; assay type: cell-based; conditions: at 18.75 µg/mL; human RBC suspension in PBS, 1 h 37 °C, absorbance 414 nm; 0.1% Triton-X100 = 100%
Protocol: The pellet containing erythrocytes was washed 3 times in PBS centrifuging at 700× g for 8 min at RT. Finally, 40 µL of pellet containing red blood cells (RBC) was diluted in 8 mL of PBS, obtaining a 0.5% v/v RBC suspension.
The 96-well V plate was incubated at 37 °C for 1 h, then centrifuged at 1000× g for 10 min, and the supernatant (60 µL) was transferred to a 96-well flat bottom microplate for the absorption analysis on a microplate reader at 414 nm. The positive control (PC, 100% hemolysis) consisted of 0.1% Triton-X100 in PBS (pH 7.4), while PBS alone served as the negative control (NC, 0% hemolysis). Each hemolysis activity assessment test was carried out in two replicates and repeated three times.
NCs and PCs were averaged, then results were normalized to the average of PC and NC according to the following formula: % Hemolysis = (Abs treated − Abs NC/Abs PC − Abs NC) × 100. The hemolytic activity was also tested on TFA to exclude any toxicity caused by the buffer.

[3] = test system: S. epidermidis GOI1153754-03-14 (CI); assay: microbe, parasite or virus in culture; conditions: GOI1153754-03-14 (CI, 18 h)
Text: as §1, §2

P. aeruginosa Pae82 (CI) = conditions: Pae82 (CI, 18 h)
Text: as §1, §2

S. aureus Sau221 (CI) = conditions: Sau221 (CI, 18 h)
Text: as §1, §2

S. aureus Sau39 (CI) = conditions: Sau39 (CI, 18 h)
Text: as §1, §2

E. coli Eco75 (CI) = conditions: Eco75 (CI, 18 h)
Text: as §1, §2

Staphylococci = conditions: 18 h
Text: as §1, §2

P. aeruginosa Pae2 (CI) = conditions: Pae2 (CI, 18 h)
Text: as §1, §2

S. aureus Sau89 (CI) = conditions: Sau89 (CI, 18 h)
Text: as §1, §2

E. coli Eco53 (CI) = conditions: Eco53 (CI, 18 h)
Text: as §1, §2

P. aeruginosa Pae61 (CI) = conditions: Pae61 (CI, 18 h)
Text: as §1, §2

E. coli Eco61 (CI) = conditions: Eco61 (CI, 18 h)
Text: as §1, §2

CC[C@H](C)[C@H](NC(=O)[C@H](CCCNC(=N)N)NC(=O)[C@H](CCC(N)=O)NC(=O)[C@@H](NC(=O)[C@@H](NC(=O)[C@H](CCCNC(=N)N)NC(=O)[C@H](CCCCN)NC(=O)[C@@H](N)Cc1ccccc1)[C@@H](C)CC)C(C)C)C(=O)N[C@@H](CCCCN)C(=O)N[C@@H](CC(=O)O)C(=O)N[C@@H](Cc1ccccc1)C(=O)N[C@@H](CC(C)C)C(=O)N[C@@H](CCCNC(=N)N)C(N)=O [FK-13] (H-FKRIVQRIKDFLR-NH2)
Minimum Inhibitory Concentration (MIC) [1]: 150.00 µg/mL
Minimum Bactericidal Concentration (MBC) [1]: 150.00 µg/mL
Minimum Inhibitory Concentration (MIC) (S. aureus ATCC 49230): >300.00 µg/mL
Minimum Bactericidal Concentration (MBC) (S. aureus ATCC 49230): >300.00 µg/mL
Minimum Inhibitory Concentration (MIC) (S. aureus ATCC 25923): 300.00 µg/mL
Minimum Bactericidal Concentration (MBC) (S. aureus ATCC 25923): >300.00 µg/mL
Minimum Inhibitory Concentration (MIC) (P. aeruginosa ATCC 27853): 300.00 µg/mL
Minimum Bactericidal Concentration (MBC) (P. aeruginosa ATCC 27853): 300.00 µg/mL
Minimum Inhibitory Concentration (MIC) [2]: 150.00 µg/mL
Minimum Bactericidal Concentration (MBC) [2]: 150.00 µg/mL
Minimum Inhibitory Concentration (MIC) (S. aureus ATCC 43300): 300.00 µg/mL
Minimum Bactericidal Concentration (MBC) (S. aureus ATCC 43300): >300.00 µg/mL
Minimum Inhibitory Concentration (MIC) (E. coli ATCC 25922): 75.00 µg/mL
Minimum Bactericidal Concentration (MBC) (E. coli ATCC 25922): 150.00 µg/mL
MBC values over all ATCC strains tested (ATCC strains): greater than 300 µg/mL

CC[C@H](C)[C@H](NC(=O)[C@H](CCCNC(=N)N)NC(=O)[C@H](CCC(N)=O)NC(=O)[C@@H](NC(=O)[C@@H](NC(=O)[C@H](CCCNC(=N)N)NC(=O)[C@H](CCCCN)NC(=O)[C@H](Cc1ccccc1)NC(=O)CN)[C@@H](C)CC)C(C)C)C(=O)N[C@@H](CCCCN)C(=O)N[C@@H](CC(=O)O)C(=O)N[C@@H](Cc1ccccc1)C(=O)N[C@@H](CC(C)C)C(=O)N[C@@H](CCCNC(=N)N)C(=O)N[C@@H](CC(N)=O)C(=O)N[C@@H](CC(C)C)C(=O)N[C@H](C(N)=O)C(C)C [GF-17] (H-GFKRIVQRIKDFLRNLV-NH2)
Hemolytic activity (red blood cells (RBC)): below 1%
Minimum Inhibitory Concentration (MIC) [1]: 4.69 µg/mL
Minimum Bactericidal Concentration (MBC) [1]: 75.00 µg/mL
Minimum Inhibitory Concentration (MIC) (S. aureus ATCC 49230): 4.69 µg/mL
Minimum Bactericidal Concentration (MBC) (S. aureus ATCC 49230): 75.00 µg/mL
Minimum Inhibitory Concentration (MIC) (S. aureus ATCC 25923): 2.34 µg/mL
Minimum Bactericidal Concentration (MBC) (S. aureus ATCC 25923): 37.50 µg/mL
Minimum Bactericidal Concentration (MBC) [3]: 37.50 µg/mL
Minimum Inhibitory Concentration (MIC) [3]: 2.34 µg/mL
Minimum Inhibitory Concentration (MIC) (P. aeruginosa ATCC 27853): 18.75 µg/mL
Minimum Bactericidal Concentration (MBC) (P. aeruginosa ATCC 27853): 75.00 µg/mL
Minimum Inhibitory Concentration (MIC) [2]: 2.34 µg/mL
Minimum Bactericidal Concentration (MBC) [2]: 4.69 µg/mL
Minimum Inhibitory Concentration (MIC) (S. aureus ATCC 43300): 4.69 µg/mL
Minimum Bactericidal Concentration (MBC) (S. aureus ATCC 43300): 150.00 µg/mL
Minimum Inhibitory Concentration (MIC) (E. coli ATCC 25922): 9.38 µg/mL
Minimum Bactericidal Concentration (MBC) (E. coli ATCC 25922): 300.00 µg/mL
Minimum Bactericidal Concentration (MBC) (P. aeruginosa Pae82 (CI)): 300.00 µg/mL
Minimum Inhibitory Concentration (MIC) (P. aeruginosa Pae82 (CI)): 75.00 µg/mL
Minimum Bactericidal Concentration (MBC) (S. aureus Sau221 (CI)): 18.75 µg/mL
Minimum Inhibitory Concentration (MIC) (S. aureus Sau221 (CI)): 9.38 µg/mL
Minimum Bactericidal Concentration (MBC) (S. aureus Sau39 (CI)): 9.38 µg/mL
Minimum Inhibitory Concentration (MIC) (S. aureus Sau39 (CI)): 2.34 µg/mL
Minimum Bactericidal Concentration (MBC) (E. coli Eco75 (CI)): 75.00 µg/mL
Minimum Inhibitory Concentration (MIC) (E. coli Eco75 (CI)): 18.75 µg/mL
MBC range (bactericidal effect) against Staphylococci (Staphylococci): 4.69 to 150 µg/mL
Minimum Bactericidal Concentration (MBC) (P. aeruginosa Pae2 (CI)): 150.00 µg/mL
Minimum Inhibitory Concentration (MIC) (P. aeruginosa Pae2 (CI)): 150.00 µg/mL
Minimum Bactericidal Concentration (MBC) (S. aureus Sau89 (CI)): 4.69 µg/mL
Minimum Inhibitory Concentration (MIC) (S. aureus Sau89 (CI)): 4.69 µg/mL
Minimum Bactericidal Concentration (MBC) (E. coli Eco53 (CI)): 75.00 µg/mL
Minimum Inhibitory Concentration (MIC) (E. coli Eco53 (CI)): 18.75 µg/mL
Minimum Bactericidal Concentration (MBC) (P. aeruginosa Pae61 (CI)): 150.00 µg/mL
Minimum Inhibitory Concentration (MIC) (P. aeruginosa Pae61 (CI)): 37.50 µg/mL
Minimum Bactericidal Concentration (MBC) (E. coli Eco61 (CI)): 18.75 µg/mL
Minimum Inhibitory Concentration (MIC) (E. coli Eco61 (CI)): 9.38 µg/mL
